Test results reported in US20160038468A1 (priority 2013, published 2016).
Values after ≈ are worked out from the molar mass of the structure shown. Read-outs that look alike come from different tables or passages of the source.

Key:
Format in all cases: cell-based
Atopobium vaginae = assay: Agar dilution MIC (CLSI), Atopobium vaginae vaginal isolates; details: for Number of strains with indicated MIC: 62 samples
Finegoldia magna = assay: Agar dilution MIC (CLSI), Finegoldia magna vaginal isolates; details: for MIC: read-out: Minimal Inhibitory Concentration (MIC)
Mobiluncus all species = assay: Agar dilution MIC (CLSI), Mobiluncus all species
Prevotella bivia = assay: Agar dilution MIC (CLSI), Prevotella bivia vaginal isolates; details: for Number of strains with indicated MIC: 34 samples; for MIC: Prevotella bivia, read-out: Minimal Inhibitory Concentration (MIC)
[1] = Fannyhessea vaginae, # tested 62
[2] = number (%) of isolates, # tested 20
[3] = number (%) of isolates, # tested 40

Cc1ncc([N+](=O)[O-])n1CCO [Metronidazole]
activity against Atopobium vaginae (Atopobium vaginae): limited activity | MIC50 (Atopobium vaginae; [1]): 128 µg/mL (≈ 748 µM) | MIC90 (Atopobium vaginae; [1]): > 128 µg/mL | Number of strains with indicated MIC (Atopobium vaginae; MIC 8 μg/ml): 2 | Number of strains with indicated MIC (Atopobium vaginae; MIC 16 μg/ml): 5 | Number of strains with indicated MIC (Atopobium vaginae; MIC 32 μg/ml): 10 | Number of strains with indicated MIC (Atopobium vaginae; MIC 64 μg/ml): 8 | Number of strains with indicated MIC (Atopobium vaginae; MIC >[…]): 24 | Number of strains with indicated MIC (Atopobium vaginae; MIC […] μg/ml): 1 | Number of strains with indicated MIC (Atopobium vaginae; MIC […]): 12 | MIC Range (Finegoldia magna; # tested 20): 0.5 to 4 µg/mL | MIC (Finegoldia magna; Finegoldia magna, isolate 301303V D): 0.5 µg/mL (≈ 2.92 µM) | MIC (Finegoldia magna; Finegoldia magna, isolate 601205V 39): 4 µg/mL (≈ 23.4 µM) | MIC (Finegoldia magna; Finegoldia magna, isolate 601214V F): 2 µg/mL (≈ 11.7 µM) | MIC (Finegoldia magna; Finegoldia magna, isolate 601275V c): 4 µg/mL (≈ 23.4 µM) | MIC (Finegoldia magna; Finegoldia magna, isolate 601276V 23): 2 µg/mL (≈ 11.7 µM) | MIC (Finegoldia magna; Finegoldia magna, isolate 601283V 14): 2 µg/mL (≈ 11.7 µM) | MIC (Finegoldia magna; Finegoldia magna, isolate 601293V 27): 2 µg/mL (≈ 11.7 µM) | MIC (Finegoldia magna; Finegoldia magna, isolate 601295V 25): 1 µg/mL (≈ 5.84 µM) | MIC (Finegoldia magna; Finegoldia magna, isolate 601298V 30): 2 µg/mL (≈ 11.7 µM) | MIC (Finegoldia magna; Finegoldia magna, isolate 601308V 24): 2 µg/mL (≈ 11.7 µM) | MIC (Finegoldia magna; Finegoldia magna, isolate 601315V 17): 4 µg/mL (≈ 23.4 µM) | MIC (Finegoldia magna; Finegoldia magna, isolate 601315V 17A): 4 µg/mL (≈ 23.4 µM) | MIC (Finegoldia magna; Finegoldia magna, isolate 601320V 24): 4 µg/mL (≈ 23.4 µM) | MIC (Finegoldia magna; Finegoldia magna, isolate 601323V K): 0.5 µg/mL (≈ 2.92 µM) | MIC (Finegoldia magna; Finegoldia magna, isolate 601330V c): 4 µg/mL (≈ 23.4 µM) | MIC (Finegoldia magna; Finegoldia magna, isolate 601335V c1): 1 µg/mL (≈ 5.84 µM) | MIC (Finegoldia magna; Finegoldia magna, isolate 601340V 27): 4 µg/mL (≈ 23.4 µM) | MIC (Finegoldia magna; Finegoldia magna, isolate 601359V c): 4 µg/mL (≈ 23.4 µM) | MIC (Finegoldia magna; Finegoldia magna, isolate 601363V 6): 1 µg/mL (≈ 5.84 µM) | MIC (Finegoldia magna; Finegoldia magna, isolate 601367V c): 4 µg/mL (≈ 23.4 µM) | MIC50 (Finegoldia magna; Finegoldia magna, # tested 20): 2 µg/mL (≈ 11.7 µM) | MIC90 (Finegoldia magna; Finegoldia magna, # tested 20): 4 µg/mL (≈ 23.4 µM) | Intermediate (Finegoldia magna; [2]): 0 µg/mL | Susceptible (Finegoldia magna; [2]): 20 (100) μg/ml | activity on Mobiluncus species (Mobiluncus all species): substantially less active | MIC50 (Mobiluncus all species; # tested 40): 8 µg/mL (≈ 46.7 µM) | MIC90 (Mobiluncus all species; # tested 40): > 128 µg/mL | Intermediate (Mobiluncus all species; [3]): 1 (3) μg/ml | Susceptible (Mobiluncus all species; [3]): 22 (55) μg/ml | Resistant (Mobiluncus all species; number (%) of isolates, # tested 40, resistance: rifaximin >32, metronidazole >32, clindamycin >8 μg/ml): 17 (42) μg/ml | MIC Range (Prevotella bivia; # tested 34): 4 to 16 µg/mL | Number of strains with indicated MIC (Prevotella bivia; MIC 8 μg/ml): 6 | Number of strains with indicated MIC (Prevotella bivia; MIC 16 μg/ml): 13 | Number of strains with indicated MIC (Prevotella bivia; MIC […] μg/ml): 15 | MIC (Prevotella bivia; isolate 601096 25): 4 µg/mL (≈ 23.4 µM) | MIC (Prevotella bivia; isolate 601166 M): 16 µg/mL (≈ 93.5 µM) | MIC (Prevotella bivia; isolate 601202 21): 16 µg/mL (≈ 93.5 µM) | MIC (Prevotella bivia; isolate 601203 5): 4 µg/mL (≈ 23.4 µM) | MIC (Prevotella bivia; isolate 601209 A1): 4 µg/mL (≈ 23.4 µM) | MIC (Prevotella bivia; isolate 601212 9): 4 µg/mL (≈ 23.4 µM) | MIC (Prevotella bivia; isolate 601213 9A): 16 µg/mL (≈ 93.5 µM) | MIC (Prevotella bivia; isolate 601214 B): 16 µg/mL (≈ 93.5 µM) | MIC (Prevotella bivia; isolate 601241 13): 4 µg/mL (≈ 23.4 µM) | MIC (Prevotella bivia; isolate 601243 15): 16 µg/mL (≈ 93.5 µM) | MIC (Prevotella bivia; isolate 601255 10): 4 µg/mL (≈ 23.4 µM) | MIC (Prevotella bivia; isolate 601261 C): 4 µg/mL (≈ 23.4 µM) | MIC (Prevotella bivia; isolate 601283 20): 16 µg/mL (≈ 93.5 µM) | MIC (Prevotella bivia; isolate 601285 14): 4 µg/mL (≈ 23.4 µM) | MIC (Prevotella bivia; isolate 601293 22): 8 µg/mL (≈ 46.7 µM) | MIC (Prevotella bivia; isolate 601305 H): 16 µg/mL (≈ 93.5 µM) | MIC (Prevotella bivia; isolate 601340 31): 4 µg/mL (≈ 23.4 µM) | MIC (Prevotella bivia; isolate 601355 B): 8 µg/mL (≈ 46.7 µM)
